Some results are limits rather than exact numbers.

In assay [1] the test system is human HT-1080 fibrosarcoma cells. The assay can be described thus: growth inhibitory action against human HT-1080 fibrosarcoma cells (crystal violet method). In kind it is cell-based. The conditions noted are these: HT-1080 cells; for IC50: Homo sapiens, 24 hours culture with test drug, DMEM/F12 with 0.1% bovine serum albumin; for growth inhibitory action on HT-1080 fibrosarcoma cells (in words): 24 hours, summary of Table 1. The protocol: The growth inhibitory action of the selenazolin derivatives of chemical formulas 4 through 12 against human HT-1080 fibrosarcoma cells was investigated. HT-1080 fibrosarcoma cells growing in Eagle's Minimum Essential Medium (EMEM) containing 10% fetal calf serum within an incubator having an atmosphere of 5% CO2 and 95% air maintained at a temperature of 37 degrees Celsius were inoculated into a 96-well plate at the rate of 1×10^4 cells/well. After 48 hours, the medium was replaced with Dulbecco's Modified Eagle's Medium (DMEM)/F12 medium containing 0.1% bovine serum albumin, and the test drugs at each concentration (0.1 μM, 100 μM) were added, followed by culturing for 24 hours. Growth inhibitory action on human HT-1080 fibrosarcoma cells was determined from the staining density following staining using the crystal violet method.

Assay [2] concerns protein kinases. Nature of the assay: simultaneous detection of the activity of a plurality of protein kinases on a single gel (lysate of v-src transformed NIH3T3 cells, labeled ATP, SDS-PAGE and autoradiography). In kind it is biochemical. The conditions noted are these: supernatant of v-src transformed NIH3T3 cells; relative to rottlerin, typically used as a protein kinase inhibitor. The method, then: Action relative to a plurality of protein kinases was investigated in accordance with the method for simultaneous detection of the activity of a plurality of protein kinases on a single gel as described in Anal. Biochem. 212:106–110, 1993.
More specifically, NIH3T3 cells transformed with v-src were disintegrated with a hypotonic buffer and denucleated by gentle centrifugation. Various types of […] (including 1 μM PMA (phorbolmyristate acetate), 20 μM cyclic adenosine-3′,5′-monophosphate (cAMP)) were then added to the centrifuged supernatant. Moreover, 3-isopropyl-2-isopropylimino-1,3-selenazolidin-4-one of chemical formula 4 and labeled adenosine triphosphate (ATP) were added and the mixture was allowed to react. After stopping the reaction, the phosphorylated protein was analyzed by SDS-PAGE and autoradiography.

For the compound `Cc1ccc(N=C2[Se]CC(=O)N2c2ccc(C)cc2)cc1` [Chemical Formula 11, 3-p-tolyl-2-p-tolylimino-1,3-selenazolidin-4-one], the IC50 in assay [1] is more than 100 µM.

As for `Cc1ccccc1N=C1[Se]CC(=O)N1c1ccccc1C` [Chemical Formula 12, 3-o-tolyl-2-o-tolylimino-1,3-selenazolidin-4-one], the IC50 in assay [1] turned out to be 75 µM.

In assay [1], `O=C1C[Se]C(=NC2CCCCC2)N1C1CCCCC1` [Chemical Formula 5, 3-cyclohexyl-2-cyclohexylimino-1,3-selenazolidin-4-one] showed an IC50 of more than 100 µM.

On to `CCC1[Se]C(=NC(C)C)N(C(C)C)C1=O` (stereo not shown) [Chemical Formula 7, 3-isopropyl-2-isopropylimino-5-ethyl-1,3-selenazolidin-4-one], for which, in assay [1], the “growth inhibitory action on HT-1080 fibrosarcoma cells (in words)” value (from here on “growth inhibitory action”) is listed as “potent growth inhibitory action” and half-maximal inhibition (IC50) was put at 2.5 µM.

In assay [1], `CC(C)N=C1[Se]C(c2ccccc2)C(=O)N1C(C)C` (stereo not shown) [Chemical Formula 9, 3-isopropyl-2-isopropylimino-5-phenyl-1,3-selenazolidin-4-one] yielded an IC50 of more than 100 µM.

For the compound `CC(C)(C)N=C1[Se]CC(=O)N1C(C)(C)C` [Chemical Formula 10, 3-t-butyl-2-t-butylimino-1,3-selenazolidin-4-one], in assay [1], the “growth inhibitory action” value is “potent growth inhibitory action” and the IC50 came to 4.5 µM.

For the compound `CC(C)N=C1[Se]CC(=O)N1C(C)C` [Chemical Formula 4, 3-isopropyl-2-isopropylimino-1,3-selenazolidin-4-one], the “inhibitory activity compared with rottlerin” value in assay [2] is reported as not below 20 times. In assay [1], the “growth inhibitory action” value is reported as “potent growth inhibitory action” and the concentration for half-maximal inhibition (IC50) stood at 3.2 µM.

Compound `CC(C)N=C1[Se]C(C)C(=O)N1C(C)C` (stereo not shown) [Chemical Formula 6, 3-isopropyl-2-isopropylimino-5-methyl-1,3-selenazolidin-4-one] showed a half-maximal inhibitory concentration (IC50) in assay [1] of 89 µM.

Turning to `CC(C)N=C1[Se]C(C)(C)C(=O)N1C(C)C` [Chemical Formula 8, 3-isopropyl-2-isopropylimino-5,5-dimethyl-1,3-selenazolidin-4-one], the IC50 in assay [1] was found to be 98 µM.

The term IC50 denotes the point on the concentration scale where inhibition reaches its midpoint. Low readings indicate greater potency in that assay, high ones weaker potency in that assay.

Source of the values: patent US7176164B2, “1,3-selenazolin derivatives and process for preparing the same” (Gifu University, priority 2001, dated 2007).
